In US20250243174A1, “ANTITUMORAL COMPOUNDS” (PHARMA MAR, S.A., priority 2021, published 2025):

How the values were obtained:
Assay type in all cases: in vivo
[1] = MTMD (Maximum Tolerated Multiple Dose) determination; settings: iv, Q7dx3; female athymic nude mice
Protocol: Female Athymic Nude-Fox1 nu/nu mice (Envigo) were utilized for all experiments. Animals (N=10/cage) were housed in individually ventilated cages (Sealsafe Plus®, Techniplast S.P.A.), on a 12-hour light-dark cycle at 21-23° C. and 40-60% humidity. Mice were allowed free access to irradiated standard rodent diet (Tecklad 2914C) and sterilized water. Animals were acclimated for five days prior to being individually tattoo-identified. Animal protocols were reviewed and approved according to the regional Institutional Animal Care and Use Committees.
Mice were randomly allocated into experimental groups and intravenously administered, once for the MTD (Maximum Tolerated Dose) determination or one administration a week during three consecutive weeks, for the MTMD (Maximum Tolerated Multiple Dose) determination study. The animals were administered with white formulation or with compound dissolved in the experimental formulation at different concentrations. The volume administered was always 10 mL/kg. Once administered, animals were monitored for clinical signs of systemic toxicity, changes in body weight and mortality up to 14 days after the administration.

HCT-116 xenografts = test: Example 7, colon xenograft model HCT-116; settings: for TV, median (IQR) / Median survival time: iv Q7dx3; for TV, median (IQR): high dose: PM060184 16, Comp. 2 2, Comp. 3 1 mg/kg
Protocol: (§1) Female athymic nu/nu mice (Harlan Laboratories Models, S.L. Barcelona, Spain or Envigo, Spain) were utilized for all experiments. Animal were housed in individually ventilated cages Sealsafe® Plus, Techniplast S.P.A.), up to ten per cage on a 12-hour light-dark cycle at 21-23° C. and 40-60% humidity. Mice were allowed free access to irradiated standard rodent diet (Tecklad 2914C) and sterilized water. Animals were acclimated for at least 5 days prior to tumor implantation with a tumor cell suspension.
HCT116 cells were maintained in vitro at 37° C., 5% Co2 in McCoy's 5A Medium (Sigma Aldrich, Co.). Culture cells were passage every 3 to 5 days on reaching confluence. Each animal was subcutaneously implanted (on the right flank using 26G needle and a 1 cc syringe) at 4-6 weeks of age with 5×10^6 HCT116 cells suspended in 0.05 mL of a solution consisting of 50% Matrigel® (Corning Incorporated Life Sciences) and 50% medium without serum or antibiotics.
(§2) All treatments were intravenously administered on a weekly basis at their MTD, ¼ MTD and 1/16 MTD (high, medium and low dose).
(§3) Briefly: • 4 to 6 week-old athymic nu/nu female mice were subcutaneously implanted with tumor cells growing in culture. • When tumors reached a certain volume, tumor bearing animals (N=8-10/group) were randomly allocated into treatment groups. • Tumor dimensions and body weights were recorded 2-3 times per week starting from the first day of treatment (Day 0). Treatments producing >20% lethality and/or 20% net body weight loss were considered toxic. Tumor volume was calculated using the equation (a·b^2)/2, where a and b were the longest and shortest diameters, respectively. Animals were euthanized when their tumors reached ca. 2,000 mm^3 and/or severe necrosis was seen. • Median was calculated for tumor volume on each measurement day. • Antitumor effect was assessed comparing tumor volume data from groups following the 1st, 2nd, 3rd study weeks, or more depending on the case, using a two-tailed Mann-Whitney U test. The data are presented as medians and interquartile range (IQR). • Complete tumor regression (CR) was defined when tumor volume<63 mm^3 for 2 or more consecutive measurements. • Treatment tolerability was assessed by monitoring body weight evolution, clinical signs of systemic toxicity as well as evidences of local damage at the injection site.
(§4) PM060184 was provided in the form of freeze-dried vials of lyophilized product. Each vial was reconstituted with water for infusion to a concentration of 2.5 mg/mL.
(§5) Compounds 2 and 3 were provided in the powder form and were solubilized with hydroxy-propyl-β-cyclodextrin (HPβCD), reaching a concentration of 1 mg/ml or 0.2 mg/ml, respectively. Placebo was provided in the form of lyophilised cake containing 1.2 g of hydroxy-propyl-β-cyclodextrin (HPβCD) which was reconstituted with water for infusion.
(§6) In these experiments, compounds 2, 3 and PM060184, as well as placebo, were intravenously administered once per week for 3 consecutive weeks, on Days 0, 7 and 14, whenever it was possible.
The experiment was carried out as previously explained. When tumors reached ca. 195-205 mm^3, tumor bearing animals (N=10/group) were randomly allocated into the following treatment groups:
(§7) Treatments were initiated on Day 0.

H460 xenografts = test: Example 5, NSCLC xenograft model H460; settings: for TV, median (IQR) / Median survival time: iv Q7dx3; for TV, median (IQR): high dose: PM060184 16, Comp. 2 2, Comp. 3 1 mg/kg
Protocol: as §1
H460 cells were maintained in vitro at 37° C. with 5% CO2 in Dulbecco's Modified Eagle's Medium (Sigma-Aldrich, Co). Culture cells were passaged every 3 to 5 days upon reaching confluence. Each animal was subcutaneously implanted (on the right flank using 26G needle and a 1 cc syringe) at 4-6 weeks of age with 5×10^6 H460 cells suspended in 0.05 mL of a solution consisting of 50% Matrigel® (Corning Incorporated Life Sciences) and 50% medium without serum or antibiotics.
as §2, §3, §4, §5, §6
The experiment was carried out as previously explained. When tumors reached ca. 160-170 mm^3, tumor bearing animals (N=10/group) were randomly allocated into the following treatment groups:
as §7

[2] = high dose: compound 2 2.0, compound 3 1.0, PM060184 16 mg/kg
[3] = highest dose: compound 2 2.0, compound 3 1.0 mg/kg
[4] = low dose: PM060184 1.0, Comp. 2 0.125, Comp. 3 0.0625 mg/kg
[5] = medium dose: PM060184 4.0, Comp. 2 0.5, Comp. 3 0.25 mg/kg
[6] = medium-dose: compound 2 0.5, compound 3 0.25 mg/kg
[7] = recorded on Day 9, compound 2 2.0 mg/kg, compound 3 1.0 mg/kg
[8] = compound 2 2.0 mg/kg, compound 3 1.0 mg/kg

COC1=CC[C@@H]([C@@H](C)/C=C(C)/C=C\C=C/C(=O)N[C@H](C(=O)N/C=C\C[C@H](C/C=C(\C)F)OC(N)=O)C(C)(C)C)OC1=O [Compound 2]
MTMD [1]: 2.0 mg/kg
TV, median (IQR) (HCT-116 xenografts; Day 7): 135.5 (114.1-154.5) mm3
TV, median (IQR) (HCT-116 xenografts; Day 14): 57.2 (47.1-62.9) mm3
TV, median (IQR) (HCT-116 xenografts; Day 21): 25.0 (13.5-34.0) mm3
TV, median (IQR) (HCT-116 xenografts; Day 28): 13.5 (13.5-32.0) mm3
TV, median (IQR) (HCT-116 xenografts; Day 35): 13.5 (13.5-13.5) mm3
Median survival time (HCT-116 xenografts; high dose: PM060184 16.0, Comp. 2 2.0, Comp. 3 1.0 mg/kg, ud = group not reached mortality): ud
mean time with tumor remission (HCT-116 xenografts; [2]): 25.8 days
animals in complete tumor remission (HCT-116 xenografts; [3]): 100%
Median survival time (HCT-116 xenografts; [4]): 19 days
Median survival time (HCT-116 xenografts; [5]): 58 days
animals that reached a complete remission (n/10) (HCT-116 xenografts; [6]): 4/10
complete remission lasted a mean of (HCT-116 xenografts; [6]): 9 days
antitumor activity compared to PM060184-treated group at 16 mg/kg (HCT-116 xenografts; once treatments were finalized (days 21 to 35), 2 at 2 mg/kg, 3 at 1 mg/kg): big difference, in terms of antitumor activity, statistically significant
mean body weight reduction (HCT-116 xenografts; [7]): ca. −13.5%
tumor reduction compared to placebo (H460 xenografts; Day 7, higher doses 16, 2 or 1 mg/kg): very strong, statistically significant tumor reduction
TV, median (IQR) (H460 xenografts; Day 7): 114.7 (97.2-131.6) mm3
TV, median (IQR) (H460 xenografts; Day 14): 80.9 (61.1-109.3) mm3
TV, median (IQR) (H460 xenografts; Day 21): 53.5 (33.4-59.7) mm3
TV, median (IQR) (H460 xenografts; Day 28): 95.0 (73.2-119.1) mm3
TV, median (IQR) (H460 xenografts; Day 35): 505.4 (428.9-583.7) mm3
antitumor activity compared to PM060184 (16 mg/kg) (H460 xenografts; [8]): stronger, statistically significant, antitumor activity
mean time frame during which the animals had tumor remission (H460 xenografts; [8]): 8.8 days
Median survival time (H460 xenografts; high dose: PM060184 16.0, Comp. 2 2.0, Comp. 3 1.0 mg/kg): 45.5 days
tumor remissions lasted (H460 xenografts; [2]): more than 48 days
animals with complete tumor remission (H460 xenografts; [3]): 100%
Median survival time (H460 xenografts; [4]): 14 days
Median survival time (H460 xenografts; [5]): 40 days
tumor remissions lasted (H460 xenografts; medium dose: compound 2 0.5 mg/kg): 30.9 days
mean body weight reduction (H460 xenografts; [7]): ca. −13.4%
